IKZF1 degradation rate data for three compounds are collected here from patent US20230234936A1, “COMPOUND FOR TARGETING AND DEGRADING PROTEIN, AND PREPARATION METHOD THEREFOR AND USE THEREOF” (SHANGHAI LEADINGTAC PHARMACEUTICAL CO., LTD., priority 2020, published 2023).

This assay deals with T1, IKZF1 in L363 cells (Homo sapiens, UniProt Q13422+Q96SW2).
T1 construct: endogenous in cells; host or cells: L363
Briefly: Degradation of IKZF1 in L363 cells (Western blot). The format is cell-based. The note with it: 1000 nM, 16 hours. The method, then:
The 24-well cell culture plate was inoculated with 0.95 mL L363 cells (Nanjing Co-bioer) per well with a cell density of 6×10^5 cells/well. The cell plate was placed in a 5% carbon dioxide incubator and cultured at 37° C. for 8 hours, then 50 μL of compound solution was added. The final concentration of the compound was 1000 nM. After continuing to culture for 16 hours, the cells were collected into a 1.5 mL centrifuge tube and centrifuged at 3000 rpm and 4° C. for 5 minutes. Cell precipitation was cleaned twice with 1×DPBS, resuspended cells were lysed with 100 μL lysate (cell lysate was Western and IP cell lysate (Beyotime), supplemented with 1 mM mixture of phenylmethylsulfonyl fluoride and protease inhibitor (Beyotime)), left on ice for 30 minutes, then centrifuged at 14000 g at 4° C. for 10 minutes, and the supernatant was taken to detect IKZF1 and IKZF3 protein level by Western blot.
The total protein concentration in the supernatant of cell lysis was determined by BCA protein quantitative kit (Tiangen). According to the concentration of total protein detected by BCA, the supernatant was adjusted to 0.2 μg/μL with PBS and 5× SDS-PAGE protein loading buffer (Beyotime), bathed in water at 100° C. for 10 minutes, then placed in ice bath for 5 minutes, centrifuged at 14000 g and 4° C. for 5 minutes, and then collected as WB loading sample. Prefabricated glue (KeyGEN) was used for protein electrophoresis with a loading amount of 10 μL (total protein 2 μg). After Tris-MOPS-SDS electrophoresis solution (Adamas), 120V constant pressure electrophoresis was performed. After electrophoresis, the protein on the adhesive strip was transferred to PVDF membrane with a constant current of […] for 50 minutes. After the membrane was transferred, the membrane was incubated in 5% bovine serum albumin solution for 2 hours at room temperature. After blocking, PVDF membranes were incubated with IKZF1 primary antibody (CST) and IKZF3 primary antibody (Abcam) overnight at 4°, the membranes were washed with TBST buffer (2.4 g Tris, 8.8 g NaCl, 1.5 mL Tween 20, pH adjusted to 7.4, constant volume to IL) for 30 minutes, incubated with secondary antibody (Abcam) for 2 hours at room temperature, finally incubated with Clarity Western ECL Substrate(BIO-RAD) for 5 minutes for luminescence development, chemiluminescence imaging system (Clinx, chemiScope 6200 Touch) for development and protein mapping photography. The protein map was analyzed by Clinx chemiluminescence analysis software for grayscale values. Using the formula: grayscale correction value=(target protein grayscale value/corresponding internal reference grayscale value)×10^3, the grayscale correction value of each sample was calculated. The degradation rate was calculated by comparing with the grayscale correction value of the control group.
For orientation: Immunoblotting shows a protein as a band on a membrane.

Each structure is given as a SMILES string.

T1 sequence (Q13422 whole entry): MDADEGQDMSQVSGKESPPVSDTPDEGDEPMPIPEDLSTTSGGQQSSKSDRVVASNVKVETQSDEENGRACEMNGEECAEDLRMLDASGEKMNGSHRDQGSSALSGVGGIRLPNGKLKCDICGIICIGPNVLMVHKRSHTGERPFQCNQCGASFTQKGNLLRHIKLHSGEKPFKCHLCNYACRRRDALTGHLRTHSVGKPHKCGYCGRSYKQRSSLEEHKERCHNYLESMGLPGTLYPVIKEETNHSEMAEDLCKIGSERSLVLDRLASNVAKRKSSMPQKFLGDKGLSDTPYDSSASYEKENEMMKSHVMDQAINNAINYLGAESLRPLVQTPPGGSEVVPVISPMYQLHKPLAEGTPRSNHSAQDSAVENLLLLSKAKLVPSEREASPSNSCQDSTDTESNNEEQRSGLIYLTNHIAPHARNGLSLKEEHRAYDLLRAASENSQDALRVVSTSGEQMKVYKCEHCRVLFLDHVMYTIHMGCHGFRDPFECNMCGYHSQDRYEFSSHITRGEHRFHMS
T1 sequence (Q96SW2 whole entry): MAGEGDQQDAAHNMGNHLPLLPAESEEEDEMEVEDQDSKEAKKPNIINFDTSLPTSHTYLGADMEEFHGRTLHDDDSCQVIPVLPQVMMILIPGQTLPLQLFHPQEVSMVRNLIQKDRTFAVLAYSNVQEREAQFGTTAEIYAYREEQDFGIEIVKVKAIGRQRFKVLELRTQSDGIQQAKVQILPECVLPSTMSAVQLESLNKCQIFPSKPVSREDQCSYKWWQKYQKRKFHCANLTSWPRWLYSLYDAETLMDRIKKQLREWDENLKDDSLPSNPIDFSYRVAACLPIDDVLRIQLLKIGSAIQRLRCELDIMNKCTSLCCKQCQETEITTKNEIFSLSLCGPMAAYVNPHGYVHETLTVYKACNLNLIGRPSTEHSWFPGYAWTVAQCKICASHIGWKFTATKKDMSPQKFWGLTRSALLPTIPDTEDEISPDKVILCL
T1 sequence (Q16531 whole entry partner): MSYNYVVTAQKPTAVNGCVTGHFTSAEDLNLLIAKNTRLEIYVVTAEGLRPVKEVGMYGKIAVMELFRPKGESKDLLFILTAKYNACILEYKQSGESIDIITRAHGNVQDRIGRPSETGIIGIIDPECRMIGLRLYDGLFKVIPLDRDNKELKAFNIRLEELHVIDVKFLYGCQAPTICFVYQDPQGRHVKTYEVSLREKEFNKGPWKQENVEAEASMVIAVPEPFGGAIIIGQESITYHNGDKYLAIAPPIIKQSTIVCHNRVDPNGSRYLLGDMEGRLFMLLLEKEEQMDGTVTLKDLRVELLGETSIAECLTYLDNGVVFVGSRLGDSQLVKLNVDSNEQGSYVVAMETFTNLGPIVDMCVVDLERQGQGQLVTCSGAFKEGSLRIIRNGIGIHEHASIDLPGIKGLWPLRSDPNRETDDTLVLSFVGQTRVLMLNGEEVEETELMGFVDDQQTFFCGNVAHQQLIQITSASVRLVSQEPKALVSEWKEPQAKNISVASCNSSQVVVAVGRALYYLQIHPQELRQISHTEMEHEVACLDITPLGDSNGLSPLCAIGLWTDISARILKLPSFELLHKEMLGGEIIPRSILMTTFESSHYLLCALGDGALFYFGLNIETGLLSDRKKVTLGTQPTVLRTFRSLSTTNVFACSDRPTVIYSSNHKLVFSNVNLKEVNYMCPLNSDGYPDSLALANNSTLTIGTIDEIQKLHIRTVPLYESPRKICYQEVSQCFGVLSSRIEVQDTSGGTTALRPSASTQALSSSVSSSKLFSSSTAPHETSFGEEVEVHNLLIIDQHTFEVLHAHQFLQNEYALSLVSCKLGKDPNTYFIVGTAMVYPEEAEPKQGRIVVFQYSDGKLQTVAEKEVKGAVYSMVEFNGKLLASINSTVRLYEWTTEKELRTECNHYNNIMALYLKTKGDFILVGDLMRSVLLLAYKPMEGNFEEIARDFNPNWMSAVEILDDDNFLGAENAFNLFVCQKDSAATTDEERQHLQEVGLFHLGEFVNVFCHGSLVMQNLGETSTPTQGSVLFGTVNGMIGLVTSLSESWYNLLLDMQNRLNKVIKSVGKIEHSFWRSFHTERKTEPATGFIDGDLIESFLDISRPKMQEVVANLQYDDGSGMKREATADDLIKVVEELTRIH

For `CC(C)(O)c1cc2nn(C3CCN(CC4CCC5(CC4)CCN(C(=O)c4ccc(Cl)c(N6CCC(=O)NC6=O)c4)CC5)CC3)cc2cc1NC(=O)c1cccc(C(F)(F)F)n1` [Example 31, N-(2-(1-((3-(4-chloro-3-(2,4-dioxotetrahydro-pyrimidin-1 (2H)-yl)benzoyl)-3-azaspiro [5.5]undec-9-yl)methyl)piperdin-4-yl)-6-(2-hydroxyprop-2-yl)-2H-indazol-5-yl)-6-(trifluoro-methyl) pyridinecarbox-amide], the IKZF1 degradation rate is on record as 8.4 ± 13.9%.

Take `COc1cc2nn(C3CCN(CC4CCN(CCOc5ccc6c(c5)C(=O)N(C5CCC(=O)NC5=O)C6=O)CC4)CC3)cc2cc1NC(=O)c1cccc(C(F)(F)F)n1` (stereo not drawn) [Control group 2, N-(2-(1-((1-(2-((2-(2,6-dioxopiperidin-3-yl)-1,3-dioxoisoindol-5-yl)oxy)ethyl)piperidin-4-yl)methyl)piperidin-4-yl)-6-methoxy-2H-indazol-5-yl)-6-(trifluoromethyl) pyridinecarboxamide, reference compound]: the IKZF1 degradation rate came to 47.5 ± 9.7%.

Regarding `CN(CC1CCN(c2cccc3c2C(=O)N(C2CCC(=O)NC2=O)C3=O)CC1)C[C@H]1CC[C@H](n2cc3cc(NC(=O)c4cccc(C(F)(F)F)n4)c(C(C)(C)O)cc3n2)CC1` (stereo partly drawn) [Control group 3, N-(2-((1r,4r)-4-((((1-(2-(2,6-dioxopiperidin-3-yl)-1,3-dioxoisoindolin-4-yl)piperidin-4-yl)methyl) (methyl)amino)methyl)cyclohexyl)-6-(2-hydroxyprop-2-yl)-2H-indazol-5-yl)-6-(trifluoromethyl) pyridinecarboxamide, reference compound], the IKZF1 degradation rate came to 97.2 ± 2.6%.
